# Measured values from patent US20030087799A1, “Modulation” (priority 2001, published 2003).
# Like-named read-outs stand apart in the source and are kept apart here.
# Tests used:
# GABAA receptor = GABAA receptor mediated chloride currents evoked on cultured neurones; format: cell-based
# globus pallidus neurones = experiment: Electrical activity of globus pallidus neurones in brain slices; format: cell-based, mouse
# [1] = test system: SK mediated AHP currents (I-AHP) in dopaminergic neurons; experiment: cells; format: cell-based, mouse; conditions: for IC50: read-out: IC50 of I-AHP inhibition (Hill function)
# [2] = test system: T-type calcium channels (low voltage-activated calcium currents); format: cell-based, mouse; conditions: read-out: IC50 of I-LVA inhibition (Hill function)
# [3] = test system: K-ATP channels in DA neurones; experiment: K-ATP channel mediated response of DA neurones to mitochondrial inhibitors; format: cell-based, mouse; conditions: read-out: EC50 of K-ATP channel sensitivity
# [4] = test system: Ih channels in DA SN neurones; experiment: Pacemaker frequency of DA SN neurones under selective Ih inhibition; format: cell-based; conditions: 30 μM ZD7288
# dopaminergic neurons [5] = format: cell-based, mouse
# [6] = test system: dopaminergic midbrain neurons; format: cell-based, mouse
# dopaminergic neurons [7] = test system: dopaminergic neurons
molecule,measurement,setting,value
"[H]/N=C(/N)NCC(=O)O [GAA, guanidinoacetate]",EC50,GABAA receptor,164 µM
CN(CC(=O)O)C(=N)N [creatine],effect on neuronal activity,globus pallidus neurones; millimolar concentrations,no effect
"COCC(=O)O[C@]1(CCN(C)CCCc2nc3ccccc3[nH]2)CCc2cc(F)ccc2[C@@H]1C(C)C [mibefradil, Mibefradil]",IC50,"[1]; Mus musculus, Neuron, mean dose-response, recording potential −60 mV",5.9 µM
same,inhibition of cobalt-sensitive I-AHP,"[1]; mibefradil, concentration not given, normalized to mean value of cobalt block, n=6",94±10%
same,IC50,[2]; depolarizations to −50 mV from holding potential −100 mV,4.6 µM
C[n+]1ccc(-c2ccccc2)cc1 [MPP^+],EC50,[3]; MPP+,~2 µM
C=C(C)[C@H]1Cc2c(ccc3c2O[C@@H]2COc4cc(OC)c(OC)cc4[C@@H]2C3=O)O1 [rotenone],EC50,[3]; rotenone,~0.015 µM
[Co+2] [cobalt],I-AHP residual current (cobalt block),"[1]; 1 mM cobalt, n=29",29±4%
CCN(c1ccccc1)c1cc(=NC)n(C)c(C)n1.Cl [ZD7288],decrease of pacemaker frequency,[4],about 50%
[Ni+2] [nickel],"coefficient of variation (CV) of interspike intervals, representative recording",dopaminergic neurons [5],38%
same,mean CV of interspike intervals,dopaminergic neurons [5],27±5%
same,bursting value (action potentials in bursts / total),[6],12±6%
same,fold reduction of AHPs with successive action potentials (cumulative inactivation),dopaminergic neurons [7],1.1±0.1
same,inhibition of cobalt-sensitive I-AHP,[1],85±9%
same,IC50,[1],33.8 µM
same,IC50,[2],33.9 µM
picrotoxin,effect on GAA-induced effects,globus pallidus neurones; GABAA receptor antagonists,blocked
